Reference: patent EP1433789A1, “Pyrrolopyrazines and their use as selective apoptosis inducers” (Aponetics AG, priority 2002, dated 2004)

Assays:
K562 [1] = test: MTS proliferation assay; assay type: cell-based; conditions: Homo sapiens, K562, 72 h incubation
Protocol: (§1) The assay is performed in 96 well tissue culture plates. The cells (range : 1.5*10^3-10^4) are seeded out in 80 µl complete medium 24 h prior to compound treatment. The test compounds are added in 20 µl complete medium containing max 5% DMSO. The final compound concentrations in the assays are 10 µM, 3 µM,1 µM and 0.3 µM, respectively. The assay plates are incubated for 72 h at culture conditions. The MTS reagent is prepared according to the manufacturer's protocol (Promega G1111 ). 20 µl MTS reagent are added to each well, the assay plates are quickly spun and incubated for another 3 h at culture conditions. Subsequently, the plates are shortly shaked and absorption measured with a microplate-reader at 492 nm.

Jurkat [2] = test: MTS proliferation assay; assay type: cell-based; conditions: Homo sapiens, 72 h incubation
Protocol: as §1

HeLa [3] = test: MTS proliferation assay; assay type: cell-based; conditions: Homo sapiens, 72 h incubation
Protocol: as §1

K562 [4] = test: Hoechst 33342 nuclear staining (Table 3); assay type: cell-based, human; parameters: key: 0 relating to no activity; 1 relating to weak activity comprising less than 50% of the cells; score 2 relating to strong activity comprising more than 50% of the cells
Protocol: (§2) This assay is performed in 96 well tissue culture plates. Appropriate number of cells (adherent cells: 3 - 5*10^3, suspension cells: 8 - 10*10^3) are being seeded out in 80 µl complete medium. Adherent cells are incubated for 24 h for proper spreading out before addition of test compounds while suspension cells are immediately treated with test compounds after seeding out. The test compounds are added in 20 µl complete medium containing max 5% DMSO. The final compound concentrations in the assays are 10 µM, 3 µM,1 µM and 0.3 µM, respectively. After 24 h or 48 h incubation at culture conditions, 10 µl medium containing Hoechst 33342 dye (Sigma B-2261) at 2-5 µg/ml are added to each well. The assay plates are then further incubated for 30 minutes and subsequently analyzed with a standard inverted fluorescence microscope. The readout allows the determination of the fraction of apoptotic nuclei as well as other morphological criteria specific for apoptosis as a function of the treatment. The following scores are used: 0 relating to no activity, 1 relating to weak activity comprising less than 50% of the cells and score 2 relating to strong activity comprising more than 50% of the cells.

KB = test: Hoechst 33342 nuclear staining (Table 3); assay type: cell-based, human; parameters: key: 0 relating to no activity; 1 relating to weak activity comprising less than 50% of the cells; score 2 relating to strong activity comprising more than 50% of the cells
Protocol: as §2

Jurkat [5] = test: Hoechst 33342 nuclear staining (Table 3); assay type: cell-based, human; parameters: key: 0 relating to no activity; 1 relating to weak activity comprising less than 50% of the cells; score 2 relating to strong activity comprising more than 50% of the cells
Protocol: as §2

Ramos [6] = test: Hoechst 33342 nuclear staining (Table 3); assay type: cell-based, human; parameters: key: 0 relating to no activity; 1 relating to weak activity comprising less than 50% of the cells; score 2 relating to strong activity comprising more than 50% of the cells
Protocol: as §2

HeLa [7] = test: Hoechst 33342 nuclear staining (Table 3); assay type: cell-based, human; parameters: key: 0 relating to no activity; 1 relating to weak activity comprising less than 50% of the cells; score 2 relating to strong activity comprising more than 50% of the cells
Protocol: as §2

Jurkat [8] = test: AnnexinV/7-AAD staining; assay type: cell-based, human; conditions: 10 µM, 24 h treatment
Protocol: (§3) Adherent cells (1 - 2*10^5) are 24 h prior to compound treatment seeded into 24 well tissue culture plates. Suspension cells are pipetted into P-tubes immediately before treatment. Test compounds are added leading to a final concentrations of 10 µM. After 24 h treatment cells are harvested (in case of adherent cells by trypsinization) and transferred to FACS tubes (BD Biosciences). After centrifugation and removal of the supernatant, 100 µl complete medium containing AnnexinV-GST (10 µg) is added, mixed and incubated at 4°C for 30 minutes. Subsequently, the cells are washed once with medium and incubated with 100 µl anti-GST Alexa 488 (Molecular Probes A-11131) in medium diluted 1:500 for 30 minutes at 4°C. Then, cells are washed once and stained with 1 µg/ml 7-aminoactinomycin D (7-AAD) (Molecular Probes A-1310) in 250 µl medium and analyzed on the FACSCalibur™. AnnexinV is measured in FL1 whereas 7-AAD is measured in FL3. In Table 5 the percentage of positively stained cells after treatment with the respective compounds are indicated. The following scores are used: Score 0 relates to less than 10%, score 1 relates to more than 10% but less than 50% and score 2 relates to more than 50% positivity.

Ramos [9] = test: AnnexinV/7-AAD staining; assay type: cell-based, human; conditions: 10 µM, 24 h treatment
Protocol: as §3

HeLa [10] = test: AnnexinV/7-AAD staining; assay type: cell-based, human; conditions: 10 µM, 24 h treatment
Protocol: as §3

A20 = test: AnnexinV/7-AAD staining; assay type: cell-based, mouse; conditions: A20, 10 µM, 24 h treatment
Protocol: as §3

IC50 (K562 [1]): > 10 µM | IC50 (Jurkat [2]): > 10 µM | IC50 (HeLa [3]): > 10 µM
SMILES: CC1(C)Cc2ccccc2-c2c(C(=O)C(F)(F)F)c3nc4ccccc4nc3n21 [No. 4, 1-(6,6-Dimethyl-5,6-dihydro-6a,7,12-triaza-dibenzo[a,h]fluoren-13-yl)-2,2,2-trifluoro-ethanone]
Hoechst 33342 nuclear staining (K562 [4]; K562, 24h, conc 0.3 (µM)): 0 | Hoechst 33342 nuclear staining (K562 [4]; K562, 24h, conc 1 (µM)): 1 (1 relating to weak activity comprising less than 50% of the cells) | Hoechst 33342 nuclear staining (K562 [4]; K562, 24h, conc 3 (µM)): 2 (score 2 relating to strong activity comprising more than 50% of the cells) | Hoechst 33342 nuclear staining (K562 [4]; K562, 24h, conc 10 (µM)): 2 (score 2 relating to strong activity comprising more than 50% of the cells) | Hoechst 33342 nuclear staining (K562 [4]; K562, 48h, conc 0.3 (µM)): 0 | Hoechst 33342 nuclear staining (K562 [4]; K562, 48h, conc 1 (µM)): 2 (score 2 relating to strong activity comprising more than 50% of the cells) | Hoechst 33342 nuclear staining (K562 [4]; K562, 48h, conc 3 (µM)): 2 (score 2 relating to strong activity comprising more than 50% of the cells) | Hoechst 33342 nuclear staining (K562 [4]; K562, 48h, conc 10 (µM)): 2 (score 2 relating to strong activity comprising more than 50% of the cells) | Hoechst 33342 nuclear staining (KB; 24h, conc 0.3 (µM)): 0 | Hoechst 33342 nuclear staining (KB; 24h, conc 1 (µM)): 0 | Hoechst 33342 nuclear staining (KB; 24h, conc 3 (µM)): 0 | Hoechst 33342 nuclear staining (KB; 24h, conc 10 (µM)): 2 (score 2 relating to strong activity comprising more than 50% of the cells) | Hoechst 33342 nuclear staining (KB; 48h, conc 0.3 (µM)): 0 | Hoechst 33342 nuclear staining (KB; 48h, conc 1 (µM)): 0 | Hoechst 33342 nuclear staining (KB; 48h, conc 3 (µM)): 2 (score 2 relating to strong activity comprising more than 50% of the cells) | Hoechst 33342 nuclear staining (KB; 48h, conc 10 (µM)): 2 (score 2 relating to strong activity comprising more than 50% of the cells) | Hoechst 33342 nuclear staining (Jurkat [5]; 24h, conc 0.3 (µM)): 0 | Hoechst 33342 nuclear staining (Jurkat [5]; 24h, conc 1 (µM)): 0 | Hoechst 33342 nuclear staining (Jurkat [5]; 24h, conc 3 (µM)): 2 (score 2 relating to strong activity comprising more than 50% of the cells) | Hoechst 33342 nuclear staining (Jurkat [5]; 24h, conc 10 (µM)): 2 (score 2 relating to strong activity comprising more than 50% of the cells) | Hoechst 33342 nuclear staining (Jurkat [5]; 48h, conc 0.3 (µM)): 0 | Hoechst 33342 nuclear staining (Jurkat [5]; 48h, conc 1 (µM)): 2 (score 2 relating to strong activity comprising more than 50% of the cells) | Hoechst 33342 nuclear staining (Jurkat [5]; 48h, conc 3 (µM)): 2 (score 2 relating to strong activity comprising more than 50% of the cells) | Hoechst 33342 nuclear staining (Jurkat [5]; 48h, conc 10 (µM)): 2 (score 2 relating to strong activity comprising more than 50% of the cells) | Hoechst 33342 nuclear staining (Ramos [6]; 24h, conc 0.3 (µM)): 1 (1 relating to weak activity comprising less than 50% of the cells) | Hoechst 33342 nuclear staining (Ramos [6]; 24h, conc 1 (µM)): 2 (score 2 relating to strong activity comprising more than 50% of the cells) | Hoechst 33342 nuclear staining (Ramos [6]; 24h, conc 3 (µM)): 2 (score 2 relating to strong activity comprising more than 50% of the cells) | Hoechst 33342 nuclear staining (Ramos [6]; 24h, conc 10 (µM)): 2 (score 2 relating to strong activity comprising more than 50% of the cells) | Hoechst 33342 nuclear staining (Ramos [6]; 48h, conc 0.3 (µM)): 1 (1 relating to weak activity comprising less than 50% of the cells) | Hoechst 33342 nuclear staining (Ramos [6]; 48h, conc 1 (µM)): 2 (score 2 relating to strong activity comprising more than 50% of the cells) | Hoechst 33342 nuclear staining (Ramos [6]; 48h, conc 3 (µM)): 2 (score 2 relating to strong activity comprising more than 50% of the cells) | Hoechst 33342 nuclear staining (Ramos [6]; 48h, conc 10 (µM)): 2 (score 2 relating to strong activity comprising more than 50% of the cells) | Hoechst 33342 nuclear staining (HeLa [7]; 24h, conc 0.3 (µM)): 0 | Hoechst 33342 nuclear staining (HeLa [7]; 24h, conc 1 (µM)): 0 | Hoechst 33342 nuclear staining (HeLa [7]; 24h, conc 3 (µM)): 0 | Hoechst 33342 nuclear staining (HeLa [7]; 24h, conc 10 (µM)): 2 (score 2 relating to strong activity comprising more than 50% of the cells) | Hoechst 33342 nuclear staining (HeLa [7]; 48h, conc 0.3 (µM)): 0 | Hoechst 33342 nuclear staining (HeLa [7]; 48h, conc 1 (µM)): 0 | Hoechst 33342 nuclear staining (HeLa [7]; 48h, conc 3 (µM)): 2 (score 2 relating to strong activity comprising more than 50% of the cells) | Hoechst 33342 nuclear staining (HeLa [7]; 48h, conc 10 (µM)): 2 (score 2 relating to strong activity comprising more than 50% of the cells) | percentage of positively stained cells (AnnexinV/7-AAD staining) (Jurkat [8]): 2 (score 2 relates to more than 50% positivity) | percentage of positively stained cells (AnnexinV/7-AAD staining) (Ramos [9]): 2 (score 2 relates to more than 50% positivity) | percentage of positively stained cells (AnnexinV/7-AAD staining) (HeLa [10]): 1 (score 1 relates to more than 10% but less than 50%) | percentage of positively stained cells (AnnexinV/7-AAD staining) (A20): 1 (score 1 relates to more than 10% but less than 50%)
